Assays:
[1] = Half life in mouse liver microsomes at 0.8 uM by LC-MS/MS analysis; format: ADME, microsome
DCN1-like protein 1 = DCN1-like protein 1 (Homo sapiens, UniProt Q96GG9)
Description: Inhibition of biotin-labeled DCN1 (unknown origin) assessed as reduction in protein interaction with Ac-UBE2M12-AlexaFluor488 after 1 hr by TR-FRET assay

[2] = Intrinsic clearance in mouse liver microsomes at 0.8 uM by LC-MS/MS analysis; format: ADME, microsome; conditions: read-out: CLH
Liver [3] = test: Drug level in mouse liver microsomes treated with 1-benzyl-1-(1-(cyclopropylmethyl)piperidin-4-yl)-3-(3-(trifluoromethyl)phenyl)urea at 0.8 uM by LC-MS/MS analysis; format: ADME, microsome
Mus musculus [4] = test: Volume of distribution in mouse at 0.5 to 1.5 mg/kg, iv administered as single dose; format: ADME, organism-based; conditions: in vivo
Mus musculus [5] = test: Toxicity in mouse at 0.5 to 1.5 mg/kg, iv administered as single dose up to 48 hrs; format: organism-based; conditions: in vivo
Plasma = test: Plasma concentration in mouse at 0.5 to 1.5 mg/kg, iv administered as single dose after 2 hrs; format: ADME, organism-based; conditions: in vivo, BLD = below limit of detection
Mus musculus [6] = test: Clearance in mouse at 0.5 to 1.5 mg/kg, iv administered as single dose; format: ADME, organism-based; conditions: in vivo
Mus musculus [7] = test: Half life in mouse at 0.5 to 1.5 mg/kg, iv administered as single dose; format: ADME, organism-based; conditions: in vivo
Liver [8] = test: Drug metabolism in mouse liver microsomes assessed as 1-benzyl-1-(piperidin-4-yl)-3-(3-(trifluoromethyl)phenyl)urea formation at 0.8 uM by LC-MS/MS analysis; format: ADME, microsome
Liver [9] = test: Drug metabolism in mouse liver microsomes assessed as aromatic ring oxidation at 0.8 uM by LC-MS/MS analysis; format: ADME, microsome
[10] = Plasma concentration in mouse at 200 mg/kg, po bid for 14 days measured after 1 hr; format: ADME, organism-based
[11] = Plasma concentration in mouse at 200 mg/kg, po administered as singe dose measured after 1 hr; format: ADME, organism-based
Mus musculus [12] = test: Toxicity in mouse at 200 mg/kg, po bid for 14 days; format: organism-based; conditions: in vivo, 336 h
[13] = Clearance in mouse at 1 mg/kg, iv administered as single dose; format: ADME, organism-based; conditions: in vivo
[14] = Plasma concentration in mouse at 200 mg/kg, po qd for 14 days measured after 1 hr; format: ADME, organism-based
Mus musculus [15] = test: Toxicity in mouse assessed as weight loss at 200 mg/kg, po qd for 5 to 14 days; format: organism-based; conditions: in vivo
Mus musculus [16] = test: Oral bioavailability in mouse at 50 mg/kg administered as single dose; format: ADME, organism-based; conditions: in vivo
[17] = Half life in mouse at 100 mg/kg, po administered as single dose; format: ADME, organism-based; conditions: in vivo
Mus musculus [18] = test: Toxicity in mouse at 200 mg/kg, po qd for 14 days; format: organism-based; conditions: in vivo, 336 h
Mus musculus [19] = test: Cmax in mouse at 50 to 200 mg/kg, po administered as single dose; format: ADME, organism-based; conditions: in vivo
Mus musculus [20] = test: Toxicity in mouse at 50 to 200 mg/kg, po administered as single dose up to 48 hrs; format: organism-based; conditions: in vivo
Mus musculus [21] = test: AUClast in mouse at 50 to 200 mg/kg, po administered as single dose; format: ADME, organism-based; conditions: in vivo
[22] = Half life in mouse at 1 mg/kg, iv administered as single dose; format: ADME, organism-based; conditions: in vivo
Mus musculus [23] = test: Toxicity in mouse assessed as weight loss at 200 mg/kg, po qd for 3 days; format: organism-based; conditions: in vivo, 72 h
[24] = Clearance in mouse at 100 mg/kg, po administered as single dose; format: ADME, organism-based; conditions: in vivo

Chain of DCN1-like protein 1 (Q96GG9 whole entry): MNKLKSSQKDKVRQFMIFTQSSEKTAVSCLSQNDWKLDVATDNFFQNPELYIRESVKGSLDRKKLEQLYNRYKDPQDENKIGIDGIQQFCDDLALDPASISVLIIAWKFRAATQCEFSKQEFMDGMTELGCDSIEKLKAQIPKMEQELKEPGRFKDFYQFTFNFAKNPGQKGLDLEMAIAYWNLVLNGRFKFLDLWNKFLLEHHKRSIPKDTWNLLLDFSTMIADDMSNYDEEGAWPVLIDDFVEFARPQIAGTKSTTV

| SMILES | half-life at 0.8 µM [1] [min] | IC50 (DCN1-like protein 1) [nM] | also measured |
| --- | --- | --- | --- |
| CCCCN1CCC(N(Cc2ccccc2)C(=O)Nc2ccc(F)c(Cl)c2)CC1 | 84 |  |  |
| CCCCN1CCC(N(Cc2ccccc2)C(=O)Nc2cccc(Cl)c2)CC1 | ≤ 6 |  |  |
| Cn1cncc1CN1CCC(N(Cc2ccccc2)C(=O)Nc2cc(F)cc(C(F)(F)F)c2)CC1 |  | > 24000 |  |
| CCCCN1CCC(N(Cc2ccccc2)C(=O)Nc2cc(F)cc(F)c2)CC1 | ≤ 6 |  | CLint scaled at 0.8 µM [2]: ≥ 500 mL/min/kg |
| CCCCN1CCC(N(Cc2ccccc2)C(=O)Nc2cccc(C#N)c2)CC1 | 9.3 | 4250 |  |
| CCCCN1CCC(N(Cc2ccccc2)C(=O)Nc2cccc(C)c2)CC1 | 10.7 | 1300 |  |
| CCCCN1CCC(N(Cc2ccccc2)C(=O)Nc2ccc(F)c(C(F)(F)F)c2)CC1 | 116 | 612 |  |
| CCCCN1CCC(N(Cc2ccccc2)C(=O)Nc2cc(F)cc(C(F)(F)F)c2)CC1 | 146 |  |  |
| CC(C)(C)N1CCC(N(Cc2ccc3c(c2)OCO3)C(=O)Nc2cccc(C(F)(F)F)c2)CC1 | 7.44 |  |  |
| CCCC(C)N1CCC(N(Cc2ccccc2)C(=O)Nc2ccc(Cl)cc2)CC1 (stereo not given) | 22.1 | 112 |  |
| CCCN1CCC(N(Cc2ccco2)C(=O)Nc2cccc(C(F)(F)F)c2)CC1 | 8.22 |  |  |
| CCCC(C)N1CCC(N(Cc2ccccc2)C(=O)Nc2ccc(C#N)c(C(F)(F)F)c2)CC1 (stereo not given) | 55.9 |  |  |
| CCCC(C)N1CCC(N(Cc2ccccc2)C(=O)Nc2cc(F)cc(C(F)(F)F)c2)CC1 (stereo not given) | 11.8 |  |  |
| CCCC(C)N1CCC(N(Cc2ccccc2)C(=O)Nc2ccc(F)c(C(F)(F)F)c2)CC1 (stereo not given) | 23.6 | 290 |  |
| CCCC(C)N1CCC(N(Cc2ccccc2)C(=O)Nc2cc(F)cc(Cl)c2)CC1 (stereo not given) | ≤ 6 |  | CLint scaled at 0.8 µM [2]: ≥ 500 mL/min/kg |
| CCCC(C)N1CCC(N(Cc2ccccc2)C(=O)Nc2ccc(C)cc2)CC1 (stereo not given) | 9.6 | 356 |  |
| CCCC(C)N1CCC(N(Cc2ccccc2)C(=O)Nc2cc(C(F)(F)F)ccc2F)CC1 (stereo not given) | 48.5 | 7440 |  |
| O=C(Nc1cccc(C(F)(F)F)c1)N(Cc1ccccc1)C1CCNCC1 |  |  | Drug metabolism (Liver [3]): Metabolite_Detected |
| CCCCN1CCC(N(Cc2ccccc2)C(=O)Nc2cccc(C(F)(F)F)c2F)CC1 | ≤ 6 |  |  |

| SMILES | half-life at 0.8 µM [1] [min] | IC50 (DCN1-like protein 1) [nM] | also measured |
| --- | --- | --- | --- |
| CCCC(C)N1CCC(N(Cc2ccccc2)C(=O)Nc2ccc3c(c2)OCO3)CC1 (stereo not given) | ≤ 6 |  | CLint scaled at 0.8 µM [2]: ≥ 500 mL/min/kg |
| CCCCN1CCC(N(Cc2ccc3c(c2)OCO3)C(=O)Nc2cccc(C(F)(F)F)c2)CC1 | 14.7 |  |  |
| CCCC(C)N1CCC(N(Cc2ccccc2)C(=O)Nc2ccc(Cl)c([N+](=O)[O-])c2)CC1 (stereo not given) | 22.7 |  |  |
| CCCC(C)N1CCC(N(Cc2ccccc2)C(=O)Nc2cc(Cl)ccc2F)CC1 (stereo not given) | 14.9 | > 34000 |  |
| O=C(Nc1cc(F)cc(C(F)(F)F)c1)N(Cc1ccccc1)C1CCN(Cc2cccc(Oc3ccccc3)c2)CC1 |  | > 24000 |  |
| CCCC(C)N1CCC(N(Cc2ccccc2)C(=O)Nc2ccc(C(C)C)cc2)CC1 (stereo not given) | 10.6 |  |  |
| CCCC(C)N1CCC(N(Cc2ccccc2)C(=O)Nc2cccc(C(C)C)c2)CC1 (stereo not given) | 13.4 | 353 |  |
| CCCC(C)N1CCC(N(Cc2ccccc2)C(=O)Nc2ccc(F)c(F)c2)CC1 (stereo not given) | 11.3 |  |  |
| O=C(Nc1cccc(C(F)(F)F)c1)NC1CCN(Cc2ccccc2)CC1 | 35.5 |  |  |
| CCCC(C)N1CCC(N(Cc2ccccc2)C(=O)Nc2cccc(C(F)(F)F)c2)CC1 (stereo not given) | 19.6 to 19.8 |  | Vd (Mus musculus [4]): 87.3 to 176 L/kg; CLint scaled at 0.8 µM [2]: 165 to 170 mL/min/kg; Activity (Mus musculus [5]): Non-Toxic; Cp (Plasma): Bld; CL (Mus musculus [6]): 700 mL/min/kg; t1/2 (Mus musculus [7]): 8.4 min |
| CCCC(C)N1CCC(N(Cc2ccccc2)C(=O)Nc2cccc(Cl)c2)CC1 (stereo not given) | ≤ 6 | 304 |  |
| CCCC(C)N1CCC(N(Cc2ccccc2)C(=O)Nc2ccc3ncsc3c2)CC1 (stereo not given) | 14.3 |  |  |
| CCCN1CCC(N(Cc2ccc3c(c2)OCO3)C(=O)Nc2cccc(C(F)(F)F)c2)CC1 | < 6 |  |  |
| CCCN1CCC(N(Cc2ccccc2)C(=O)Nc2cccc(C(F)(F)F)c2)CC1 | 10.2 |  |  |
| COc1cccc(CN2CCC(N(Cc3ccccc3)C(=O)Nc3cc(F)cc(C(F)(F)F)c3)CC2)c1 |  | > 28000 |  |
| CCCC(C)N1CCC(N(Cc2ccccc2)C(=O)Nc2ccc(C)c(F)c2)CC1 (stereo not given) | 9 |  |  |
| CCCCN1CCC(N(Cc2ccccc2)C(=O)Nc2ccc(C)c(Cl)c2)CC1 | 17.2 | 325 |  |
| CCCC(C)N1CCC(N(Cc2ccccc2)C(=O)Nc2ccc(Br)cc2)CC1 (stereo not given) | 23.2 | 68 |  |
| COc1ccccc1CN1CCC(N(Cc2ccccc2)C(=O)Nc2cc(F)cc(C(F)(F)F)c2)CC1 |  | > 25000 |  |

| SMILES | half-life at 0.8 µM [1] [min] | IC50 (DCN1-like protein 1) [nM] | also measured |
| --- | --- | --- | --- |
| CCCC(C)N1CCC(N(Cc2ccccc2)C(=O)Nc2ccc3ccccc3c2)CC1 (stereo not given) | ≤ 6 | 18 | CLint scaled at 0.8 µM [2]: ≥ 500 mL/min/kg |
| Cc1ccc(CN2CCC(N(Cc3ccccc3)C(=O)Nc3cc(F)cc(C(F)(F)F)c3)CC2)o1 |  | > 24000 |  |
| CCCC(C)N1CCC(N(Cc2ccccc2)C(=O)Nc2cccc(F)c2)CC1 (stereo not given) | ≤ 6 | 1690 |  |
| CCCN1CCC(N(Cc2cc(F)cc(C(F)(F)F)c2)C(=O)Nc2cccc(C(F)(F)F)c2)CC1 | 16.3 |  |  |
| CCCC(C)N1CCC(N(Cc2ccccc2)C(=O)Nc2ccc(C(F)(F)F)nc2C)CC1 (stereo not given) | > 240 | 13300 |  |
| CCCCN1CCC(N(Cc2ccccc2)C(=O)Nc2cccc(F)c2)CC1 | ≤ 6 |  | CLint scaled at 0.8 µM [2]: ≥ 500 mL/min/kg |
| Cn1ccc2cc(CN3CCC(N(Cc4ccccc4)C(=O)Nc4cc(F)cc(C(F)(F)F)c4)CC3)ccc21 |  | > 21000 |  |
| O=C(Nc1cccc(C(F)(F)F)c1)N(Cc1ccccc1)C1CCN(CC2CC2)CC1 | < 6 |  | Drug metabolism (Liver [8]): Metabolite_Detected; Drug metabolism (Liver [9]): Metabolite_Detected |
| CCCC(C)N1CCC(N(Cc2ccccc2)C(=O)Nc2ccc(C(C)(C)C)cc2)CC1 (stereo not given) |  | 1720 |  |
| Cn1ccnc1CN1CCC(N(Cc2ccccc2)C(=O)Nc2cc(F)cc(C(F)(F)F)c2)CC1 |  | > 28000 |  |
| CCCC(C)N1CCC(N(Cc2ccccc2)C(=O)Nc2ccc(C(F)(F)F)cc2)CC1 (stereo not given) | 27.3 | 314 |  |
| CCCCN1CCC(N(Cc2ccccc2)C(=O)Nc2cccc(C(F)(F)F)c2)CC1 | 9 |  |  |
| O=C(Nc1cc(F)cc(C(F)(F)F)c1)N(Cc1ccccc1)C1CCN(Cc2ccc(Cc3ccccc3)cc2)CC1 |  | > 22000 |  |
| O=C(Nc1cc(F)cc(C(F)(F)F)c1)N(Cc1ccccc1)C1CCN(Cc2nc3ccccc3s2)CC1 |  | > 25000 |  |
| CCCC(C)N1CCC(N(Cc2ccccc2)C(=O)Nc2ccc3ncccc3c2)CC1 (stereo not given) |  | > 20000 |  |
| O=C(Nc1cc(F)cc(C(F)(F)F)c1)N(Cc1ccccc1)C1CCN(Cc2ccncc2)CC1 |  | > 28000 |  |
| CCCC(C)N1CCC(N(Cc2ccccc2)C(=O)Nc2ccc3c(c2)CCC3)CC1 (stereo not given) | ≤ 6 |  |  |
| CCCCN1CCC(N(Cc2ccccc2)C(=O)Nc2ccc(Cl)c(Cl)c2)CC1 | 126 to 127 |  | concentration at 1 h [10]: 3300 nM; concentration at 1 h [11]: 3000 nM; Activity (Mus musculus [12]): Non-Toxic; clearance [13]: 283 mL/min/kg; Vd (Mus musculus [4]): 87.3 to 176 L/kg; concentration at 1 h [14]: 2400 nM; Activity (Mus musculus [15]): Non-Toxic; CLint scaled at 0.8 µM [2]: 25 to 25.6 mL/min/kg; F (Mus musculus [16]): 88%; half-life [17]: 252 min; Activity (Mus musculus [18]): Non-Toxic; Activity (Mus musculus [5]): Non-Toxic; Cmax (Mus musculus [19]): 1500 to 3000 nM; Activity (Mus musculus [20]): Non-Toxic; AUClast (Mus musculus [21]): 3.4 to 17.1 µM·h; half-life [22]: 216 min; Activity (Mus musculus [23]): 3 to 5%; CL/F [24]: 367 mL/min/kg |
| CCCC(C)N1CCC(N(Cc2ccccc2)C(=O)Nc2ccc(I)cc2)CC1 (stereo not given) | 29.9 | 54 |  |
